Test results: US5336768A, “Antibacterial cephalosporin compounds” (Hoffmann-La Roche Inc., priority 1988, dated 1994)
Where a name gives a salt, the structure may show the parent alone. Read-outs that look alike come from different tables or passages of the source.

Key:
Assay in all cases: In vitro MIC, Agar Dilution Method
Format in all cases: cell-based
[1] = system: Ser. marcescens SM; settings: Serratia marcescens, read-out: In Vitro MIC
Text: (§1) The in vitro activity of the compounds of the present invention as measured by the Minimum Inhibitory Concentration (MIC) in micrograms/ml utilizing the Agar Dilution Method against a variety of Gram-positive and Gram-negative organisms, is as follows: […]

[2] = system: E. coli ATCC 25922; settings: Escherichia coli, ATCC25922
Text: as §1

[3] = system: Prot. mirabilis 90
Text: as §1

[4] = system: E. coli TEM-1; settings: Escherichia coli, TEM1, read-out: In Vitro MIC
Text: as §1

[5] = system: Ps. aeruginosa ATCC 27853; settings: Pseudomonas aeruginosa
Text: as §1

[6] = system: Str. pyogenes 4; settings: Streptococcus pyogenes
Text: as §1

[7] = system: Staph. aureus 67; settings: Staphylococcus aureus
Text: as §1

[8] = system: Ser. marcescens 1071; settings: Serratia marcescens
Text: as §1

[9] = system: Ps. aeruginosa 5712; settings: Pseudomonas aeruginosa
Text: as §1

[10] = system: Ps. aeruginosa 765
Text: as §1

[11] = system: Cit. freundii BS-16; settings: Citrobacter freundii, BS16
Text: as §1

[12] = system: Ps. aeruginosa 8780; settings: Pseudomonas aeruginosa
Text: as §1

[13] = system: Enter. cloacae 5699; settings: Enterobacter cloacae
Text: as §1

[14] = system: Str. faecalis ATCC 29212; settings: Enterococcus faecalis, ATCC29212
Text: as §1

[15] = system: Prot. vulgaris ATCC 6380; settings: Proteus vulgaris
Text: as §1

[16] = system: Staph. aureus 753
Text: as §1

[17] = system: E. coli 257; settings: Escherichia coli
Text: as §1

[18] = system: Ps. aeruginosa 18SH; settings: Pseudomonas aeruginosa, read-out: In Vitro MIC
Text: as §1

[19] = system: Staph. aureus 10598
Text: as §1

[20] = system: Enter. cloacae P99; settings: Enterobacter cloacae
Text: as §1

[21] = system: Str. pneumoniae 6301; settings: Streptococcus pneumoniae
Text: as §1

[22] = system: Staph. aureus ATCC 29213; settings: Staphylococcus aureus
Text: as §1

[23] = system: Staph. aureus Smith; settings: Staphylococcus aureus, read-out: In Vitro MIC
Text: as §1

[24] = system: Prot. Vulqaris 1028 BC; settings: read-out: In Vitro MIC
Text: as §1

[25] = system: K. pneumoniae A; settings: Klebsiella pneumoniae, read-out: In Vitro MIC
Text: as §1

SMILES	MIC [2] [µg/mL]	MIC [4] [µg/mL]	MIC [6] [µg/mL]	MIC [7] [µg/mL]	MIC [8] [µg/mL]	MIC [9] [µg/mL]	MIC [11] [µg/mL]	MIC [12] [µg/mL]	MIC [13] [µg/mL]	MIC [14] [µg/mL]	MIC [17] [µg/mL]	MIC [20] [µg/mL]	MIC [21] [µg/mL]	other results
CCn1cc(C(=O)O)c(=O)c2cc(F)c(N3CCN(C(=O)OCC4=C(C(=O)O)N5C(=O)[C@@H](NC(=O)/C(=N\OC)c6csc(N)n6)[C@H]5SC4)CC3)cc21 [Compound A, [6R-[6α,7β(Z)]]-7-[[(2-amino-4-thiazolyl) (methoxyimino)acetyl]amino]-3-[[[[4-(3-carboxy-1-ethyl-6-fluoro-1,4-dihydro-4-oxo-7-quinolinyl) -1-piperazinyl]carbonyl]oxy]methyl]-8-oxo-5-thia-1-azabicyclo[4.2.0]oct-2-ene-2-carboxylic acid sodium salt]	0.25	0.25	0.0157	4	0.5	16	0.5	4	0.5	0.5	0.25	0.5	0.0157	MIC [1]: 0.25 µg/mL; MIC ([3]; Proteus mirabilis, 90, read-out: In Vitro MIC): 0.25 µg/mL; MIC ([5]; ATCC27853, Ps. aeruginosa ATCC 27853, Agar Dilution Method, read-out: In Vitro MIC): 8 µg/mL; MIC ([10]; Pseudomonas aeruginosa, Ps. aeruginosa 765, Agar Dilution Method, read-out: In Vitro MIC): 8 µg/mL; MIC ([15]; ATCC6380, Prot. vulgaris ATCC 6380, Agar Dilution Method, read-out: In Vitro MIC): 0.0625 µg/mL; MIC ([16]; Staphylococcus aureus, Staph. aureus 753, Agar Dilution Method, read-out: In Vitro MIC): 4 µg/mL; MIC ([18]; Ps. aeruginosa 18SH, Agar Dilution Method): 4 µg/mL; MIC ([19]; Staphylococcus aureus, Staph. aureus 10598, Agar Dilution Method, read-out: In Vitro MIC): 2 µg/mL; MIC ([22]; ATCC29213, Staph. aureus ATCC 29213, Agar Dilution Method, read-out: In Vitro MIC): 2 µg/mL; MIC ([23]; Staph. aureus Smith, Agar Dilution Method): 1 µg/mL; MIC ([24]; Prot. Vulqaris 1028 BC, Agar Dilution Method): 0.125 µg/mL; MIC ([25]; K. pneumoniae A, Agar Dilution Method): 0.5 µg/mL
CO/N=C(\C(=O)N[C@@H]1C(=O)N2C(C(=O)O)=C(COC(=O)N3CCN(c4cc5c(cc4F)c(=O)c(C(=O)O)cn5C4CC4)CC3)CS[C@H]12)c1csc(N)n1 [Compound B, [6R-[6α,7β(Z)]]-7-[[(2-amino-4-thiazolyl) (methoxyimino)acetyl]amino]-3-[[[[4-(3-carboxy-1-cyclopropyl-6-fluoro-1,4-dihydro-4-oxo-7-quinolinyl)-1-piperazinyl]carbonyl]oxy]methyl]-8-oxo-5-thia-1-azabicyclo[4.2.0]oct-2-ene-2-carboxylic acid sodium salt]	0.0625	0.0625	0.0157	2	0.25	4	0.125	2	0.125	0.25	0.0625	0.0313	0.0157	MIC ([1]; Ser. marcescens SM, Agar Dilution Method): 0.125 µg/mL; MIC ([3]; Proteus mirabilis, Prot. mirabilis 90, Agar Dilution Method, read-out: In Vitro MIC): 0.25 µg/mL; MIC ([5]; ATCC27853, read-out: In Vitro MIC): 1 µg/mL; MIC ([10]; Pseudomonas aeruginosa, 765, read-out: In Vitro MIC): 1 µg/mL; MIC ([15]; ATCC6380, read-out: In Vitro MIC): 0.0625 µg/mL; MIC ([16]; Staphylococcus aureus, 753, read-out: In Vitro MIC): 1 µg/mL; MIC ([18]; 18SH): 1 µg/mL; MIC ([19]; Staphylococcus aureus, 10598, read-out: In Vitro MIC): 1 µg/mL; MIC ([22]; ATCC29213, read-out: In Vitro MIC): 1 µg/mL; MIC [23]: 0.5 µg/mL; MIC [24]: 0.0625 µg/mL; MIC [25]: 0.0625 µg/mL
